Consider 17 molecules from patent publication US7816397B2, “Phenylcarboxylic acid derivatives and use thereof for the treatment of diabetes” (Merck Patent GmbH, priority 2004, dated 2010).

Assay [1] has as its system INS-1 cells. Description: Insulin secretion test on INS-1 cells. It is filed as cell-based. The following applies: Rattus norvegicus, INS1, test compound concentration 10^−5 M, read-out: INS-1 Test concentration 10^−5 M % (Sec INS, percentage of insulin secretion). From the text: Insulin Secretion Test on INS-1 Cells
According to the method described in Endocrinology, 1992 vol. 130 (1) pp. 167-178
Sec INS corresponds to the percentage of insulin secretion.
C corresponds to the concentration of test compound according to the invention.

Assay [2] deals with isolated islets of Langerhans. Description: Insulin secretion test on islets isolated from rats (static incubation, stimulation factor). It is filed as cell-based. Conditions: 90 minutes incubation, glucose 2.8 mM or 8 mM (not given), stimulates if factor >= 130%; for Isolated islets 10^−5 M (stimulation factor of insulin secretion): compound 10^−5 M; for Isolated islets 10^−7 M (stimulation factor of insulin secretion): compound 10^−7 M. How it is done: Insulin Secretion Test on Islets Isolated from Rats
The effect of the compounds on insulin secretion as a function of the glucose concentration was tested, in vitro, in isolated islets of Langerhans in static incubation.
The islets Langerhans obtained by digestion of exocrine pancreatic tissue with collagenase, followed by purification on a Ficoll gradient, are incubated for 90 minutes in the presence of two concentrations of glucose (2.8 mM or 8 mM), in the presence or absence of the chemical compound. The insulin secretion is assayed by RIA in the incubation medium.
The potential of the various chemical compounds to stimulate insulin secretion is estimated by calculating the stimulation factor*.
A compound stimulates insulin secretion if this factor is greater than or equal to 130% for a given dose of glucose.
G=insulin secretion (pmol/min. islet) in the presence of glucose alone
G+P=insulin secretion (pmol/min. islet) in the presence of the same concentration of glucose and of the test compound.

For assay [3], the system named is n0-STZ/sucrose rats. The assay is described as follows: In vivo oral glucose tolerance test (OGTT) after daily treatment for 7 days. The arrangement: species or system Rats Wistar. Conditions: 100 mg/kg/day for 7 days. How it is done: To evaluate the effect of 2-{2-[4-(4-chlorobenzenesulfonylamino)phenyl]-ethyl}benzoic acid (compound 522) on the glucose tolerance of n0-STZ/sucrose rats, after a daily treatment for 7 days.
Rats Wistar (origin: Charles River, France), which received an injection of streptozotocin (100 mg/kg i.v.) on the day of birth. On their arrival at the Research Centre, at seven weeks old:
• 9 rats were placed on a standard diet (A04, SAFE). • 19 rats were placed on a sucrose-rich diet (58% sucrose, SAFE).
After 2 months on the diet, the rats on the sucrose diet were divided randomly into 2 subgroups (control diabetic, treated diabetic).
The three groups were then treated daily for 7 days, with excipient (0.5% methylcellulose solution) for the control group (healthy animals) and the diabetic control group, or with product (compound 522, 100 mg/kg/day) for the third group.
Glucose Tolerance Test (OGTT):
After treatment for 7 days, the animals were fasted for 3 hours before the start of the test. Samples were taken from the tail of the conscious rats. The first blood sample was taken 10 minutes before the administration of glucose (2 g/kgbody weight/oral route). Blood was then taken 10, 20, 30, 45, 60, 90 and 120 minutes after the administration of glucose.
The glucose tolerance was evaluated by means of the ΔAUC glc, which represents the cumulative increase in glycaemia above the basal value over the 120 minutes of the test.
The insulin response to glucose was estimated by means of the ΔAUC Ins, which represents the cumulative increase in insulinaemia above the basal value over the 120 minutes of the test.

For the molecule `Cc1ccc(S(=O)(=O)Nc2ccccc2CCCc2ccccc2C(=O)O)c(C)c1` [Compound 109], in assay [1], the activity at 10 µM is 162%.
Take `O=C(O)c1ccccc1CCCc1ccccc1NS(=O)(=O)c1ccc2ccccc2c1` [Compound 117]: the activity at 10 µM in assay [1] was determined as 175%.
For `Cc1cc(C)c(S(=O)(=O)Nc2ccccc2CCCc2ccccc2C(=O)O)c(C)c1` [Compound 121], the activity at 10 µM in assay [1] came to 184%.
As for `Cc1ccc(S(=O)(=O)Nc2ccccc2CCCCCc2ccccc2C(=O)O)cc1` [Compound 144], the activity at 10 µM in assay [1] is 191%.
`Cc1ccc(S(=O)(=O)Nc2ccccc2CCCCCc2ccccc2C(=O)O)c(C)c1` [Compound 151]: the activity at 10 µM in assay [1] came to 190%.
`O=C(O)c1ccccc1CCCCCc1ccccc1NS(=O)(=O)c1ccccc1F` [Compound 152]: in assay [1], the activity at 10 µM is 202%.
On to `CCS(=O)(=O)Nc1ccccc1CCCCCc1ccccc1C(=O)O` [Compound 157], for which, in assay [1], the activity at 10 µM was determined as 203%.
On to `COc1cc(C)c(S(=O)(=O)Nc2ccccc2CCCCCc2ccccc2C(=O)O)c(C)c1C` [Compound 158], for which, in assay [2], the “Isolated islets 10^−5 M (stimulation factor of insulin secretion)” value was “+166%” and the “Isolated islets 10^−7 M (stimulation factor of insulin secretion)” value was “+135%”. The activity at 10 µM in assay [1] came to 182%.
As for `CN(C)c1cccc2c(S(=O)(=O)Nc3ccccc3CCCCCc3ccccc3C(=O)O)cccc12` [Compound 159], in assay [1], the activity at 10 µM turned out to be 269%.
As for `CC(C)c1ccc(S(=O)(=O)Nc2ccccc2CCCCCc2ccccc2C(=O)O)cc1` [Compound 164], in assay [1], the activity at 10 µM came to 180%.
Turning to `O=C(O)c1ccccc1CCCCCc1ccccc1NS(=O)(=O)c1cccc2cccnc12` [Compound 168], in assay [2], the “Isolated islets 10^−5 M (stimulation factor of insulin secretion)” value is given as “+236%” and the “Isolated islets 10^−7 M (stimulation factor of insulin secretion)” value is on record as “+169%”. Further, the activity at 10 µM in assay [1] is 256%.
With `O=C(O)c1ccccc1CCc1ccc(NS(=O)(=O)c2ccc(Cl)cc2)cc1` [Compound 522, 2-{2-[4-(4-chlorobenzenesulfonylamino)phenyl]-ethyl}benzoic acid], in assay [3] (OGTT 120 minutes), the “ΔAUC insulin, treated versus diabetic controls (in words)” value is listed as “unchanged”. Also, the “ΔAUC glucose down by, treated rats compared with the diabetic controls” value in assay [3] (OGTT glucose 2 g/kg oral, 120 minutes, significant p<0.05) was 21%. The “ΔAUC insulin (cumulative increase in insulinaemia above the basal value)” value in assay [3] (treated rats, OGTT 120 minutes, diabetic controls 11417+/−1440) came out at 14494 ± 665 pmol·min. Moreover, in assay [3] (treated rats, OGTT 120 minutes, diabetic controls 33306+/−1403), the “ΔAUC glucose (cumulative increase in glycaemia above the basal value)” value was 26438 ± 2255 mg·min/dL.
Take `O=C(O)c1ccccc1CCc1ccccc1NS(=O)(=O)/C=C/c1ccccc1` [Compound 639]: in assay [1], the activity at 10 µM stood at 144%.
On to `CCCCc1ccc(S(=O)(=O)Nc2ccccc2CCc2ccccc2C(=O)O)cc1` [Compound 642], for which the activity at 10 µM in assay [1] was 140%.
For `O=C(O)c1ccccc1CCc1ccccc1NS(=O)(=O)c1ccc(S(=O)(=O)c2ccccc2)s1` [Compound 650], the activity at 10 µM in assay [1] was 139%.
On to `CCC(C)(C)c1ccc(S(=O)(=O)Nc2ccccc2CCc2ccccc2C(=O)O)cc1` [Compound 654], for which the activity at 10 µM in assay [1] was 148%.
Same read-out and setting: as for `N#Cc1ccccc1S(=O)(=O)Nc1ccccc1CCc1ccccc1C(=O)O` [Compound 655], the figure is 147%.
